Data on 16 compounds can be found in patent publication US20230107216A1, “PANTETHEINE DERIVATIVES AND USES THEREOF” (Comet Therapeutics, Inc., priority 2018, published 2023).

Where two headings read alike, the source gives them in different places. Some results are limits rather than exact numbers.

For test [1], the system named is Very long-chain acyl-CoA dehydrogenase (VLCAD) primary fibroblasts GM17475. The test is described as follows: Total NAD+ + NADH and NAD+ (NAD/NADH-Glo), VLCAD fibroblasts GM17475. Type of test: cell-based. Particulars: Homo sapiens, Fibroblast, VLCAD GM17475 P10, assay condition A, 24h, read-out: Increase in Total NAD+ + NADH. How it is done: Primary adherent fibroblasts were cultured in minimum essential medium (MEM) (Gibco, 25030081) supplemented with 2 mM L-Glutamine (Gibco, 25030081), 15% fetal bovine serum (FBS) (Gibco, 26400044) and 1% penicillin/streptomycin (Gibco, 5140122) at 37° C. and 5% CO2. Cells were collected for either passaging or experiment at ˜70-80% confluence. Cells were obtained by trypsinization and seeded in cell culture microplates either white plate (Thermo Fisher Scientific, 152028) for luminescent measurement or black plate (Thermo Fisher Scientific, 165305) for fluorescent based read out for different assays listed below. Cells were obtained by trypsinization and […] were seeded and allowed to adhere for 16-18 hours to have confluency around 70-80% in the cell well with culture media. After 24 hours prior to measurements (37° C., 5% CO2) media was changed to Dulbecco's Modified Eagle Medium (DMEM, Agilent Seahorse cat #103575-100) with the appropriate supplements as stated below.
Primary fibroblasts assayed were Propionic Acidemia (PA) (GM03590 Coriell Institute for Medical Research, Tsi 6337 Trans-Hit Bio), Methylmalonic Acidemia (MMA) (Tsi 5224 Trans-Hit Bio), Subnormal activation of pyruvate dehydrogenase complex (PDH) (GM01503 Coriell Institute for Medical Research), Very long-chain acyl-CoA dehydrogenase (VLCAD) (GM17475), Leigh Syndrome (LS) (GM03672, GM13411 Coriell Institute for Medical Research), Pyruvate Carboxylase Deficiency (PC) (GM00444 Coriell Institute for Medical Research). 10 μM of Compounds were added for 2 hours in PA, MMA lines and for 24h for the other fibroblast lines.
Assay was performed according to manufacturer instructions (NAD/NADH-Glo Assay Promega, G9072). The NAD/NADH-Glo Assay is a bioluminescent assay for detecting total oxidized and reduced nicotinamide adenine dinucleotides (NAD+ and NADH, respectively) from which ratio of NAD/NADH can be calculated. Briefly, for every assay a 12-point standard curve was prepared ranging from 400 nM to 0.625 nM. Media was removed and replaced with 50 μl of PBS for both assays.
For individual NAD+ and NADH measurement, 50 μl of 1% DTAB (Sigma Cat #D5047) (cell lysis reagent) in 0.2N NaOH was added to the plate and a total 100 μl of lysate was split into two plates with 50 μl each. 25 μl of 0.4N HCl were added to the NAD+ plate and both NAD+ and NADH plate were heated at 60° C. for 15 minutes. The acid and heat treatment destroyed NADH allowing individual NAD+ measurement while heating in basic conditions destroys NAD+ allowed individual NADH measurements. The plates were allowed to come to room temperature for 10 minutes and Trizma base (Sigma, T1699) was added to the NAD+ plate to neutralize the acid and HCl Trizma hydrochloride (Sigma, T2694) was added to the NADH plate. The NADNADH glo reagent was prepared by adding: 625 μl of NAD cycling substrate, 125 μl of reductase, 125 μl of reductase substrate, 125 μl NAD cycling enzyme to total of the 25 ml of NAD GLO reagent. 1:1 ratio of total volume of reagent was added to the individual NAD+, NADH measurement (total 100 μl) and 50 μl for total NAD/NAH measurement. Luminescence was read between 30-60 minutes within the linear range.
A total dead cell count was performed as described in Example 817 and only alive cells were used for analysis.

In test [2] the test system is Peripheral blood mononuclear cells co-cultured with venular endothelial cells (HUVEC) (LPS system). The test is described as follows: BioMAP LPS system. It counts as cell-based, human. Particulars: procedure of Example 827.
Test [3] deals with Bronchial epithelial cells (BE3C system). The test is described as follows: BioMAP BE3C system (IL-1β, TNFα, IFNγ). Type of test: cell-based, human. The note with it: procedure of Example 831.
[4] abbreviates: Homo sapiens, HUVEC, 24 h, 10 uM, read-out: % decrease in TissueFactor.
Where [5] appears, read: Homo sapiens, HUVEC, 24 h, 10 uM, read-out: % increase in sTNFα.
Setting [6] is: Homo sapiens, HUVEC, 24 h, 10 uM, read-out: % decrease in IL-1α.
The mark [7] stands for this setting: Homo sapiens, HUVEC, 24 h, 1 uM, read-out: % decrease in sPGE2.
[8] abbreviates: Homo sapiens, HUVEC, 24 h, 10 uM, read-out: % decrease in sPGE2.
Setting [9] is: Homo sapiens, HUVEC, 24 h, 1 uM, read-out: % decrease in IL-1α.
The mark [10] stands for this setting: Homo sapiens, HUVEC, 24 h, 10 uM, read-out: % decrease in IL-8.
The mark [11] stands for this setting: Homo sapiens, Epithelial cell, 24 h, 10 uM, read-out: % decrease in MMP-1.
The mark [12] stands for this setting: Homo sapiens, HUVEC, 24 h, 1 uM, read-out: % decrease in IL-8.

For the compound `CC(C)(CO)[C@@H](O)C(=O)NCCC(=O)NCCSC(=O)CC(=O)CCC(=O)O` [Compound 2, 6-[(2-[3-[(2R)-2,4-dihydroxy-3,3-dimethylbutanamido]propanamido]ethyl)sulfanyl]-4,6-dioxohexanoic acid], the activation at 10 µM in test [1] was at least 10%.

Take `C[C@@H](O)CC(=O)SCCNC(=O)CCNC(=O)[C@H](O)C(C)(C)CO` [Compound 38, S-2-{3-[(R)-2,4-dihydroxy-3,3-dimethylbutyrylamino]propionylamino} ethyl (R)-3-hydroxybutanethioate]: in test [1], the activation at 10 µM is at least 10%.

Turning to `C[C@@H](O)CC(=O)CC(=O)SCCNC(=O)CCNC(=O)[C@H](O)C(C)(C)CO` [Compound 42, (2R)-2,4-dihydroxy-N-[2-[(2-[[(5R)-5-hydroxy-3-oxohexanoyl]sulfanyl]ethyl)carbamoyl]ethyl]-3,3-dimethylbutanamide], the activation at 10 µM in test [1] was at least 10%. For the same compound, the “% decrease in Thrombomodulin” value in test [2] (10 uM) is at least 10%. The inhibition at 10 µM in test [2] (setting [4]) was at least 10%. The activation at 10 µM in test [2] (setting [5]) is at least 10%. Besides, in test [3] (10 uM), the “% decrease in Keratin 8/18” value is at least 1.0%, the “% decrease in MMP-9” value was at least 10% and the “% decrease in tPA” value is at least 10%.

In the case of `CC(C)(COC(=O)OCC[N+](C)(C)C)[C@@H](O)C(=O)NCCC(=O)NCCSC(=O)CCC(=O)O` [Compound 116, [2-([[(3R)-3-[[2-([2-[(3-carboxypropanoyl)sulfanyl]ethyl]carbamoyl)ethyl]carbamoyl]-3-hydroxy-2,2-dimethylpropoxy]carbonyl]oxy)ethyl]trimethylazanium], in test [2] (setting [6]), the inhibition at 10 µM was at least 10%.

As for `COC(=O)CCC(=O)SCCNC(=O)CCNC(=O)[C@H](O)C(C)(C)COC(C)=O` [Compound 138], in test [2] (1 uM), the “% increase in Tissue Factor” value is given as at least 10%. Further, the inhibition at 1 µM in test [2] (setting [7]) is at least 10%. Also, the “% increase in MMP-9” value in test [3] (1 uM) was at least 10%.

Regarding `COC(=O)CC(SCCNC(=O)CCNC(=O)[C@H](O)C(C)(C)COC(C)=O)C(=O)OC` (stereo partly drawn) [Compound 149, 1,4-dimethyl 2-[(2-[3-[(2R)-4-(acetyloxy)-2-hydroxy-3,3-dimethylbutanamido]propanamido]ethyl)sulfanyl]butanedioate], the “% increase in Tissue Factor” value in test [2] (1 uM) is at least 10%. Besides, in test [2] (10 uM), the “% increase in IL-8” value is on record as at least 10%. Moreover, the inhibition at 10 µM was at least 10% in test [2] (setting [6]), at least 20% in test [2] (setting [4]) and at least 10% in test [2] (setting [8]). For the same compound, in test [3] (10 uM), the “% decrease in tPA” value is at least 10%.

In the case of `CC(C)(CO)[C@@H](O)C(=O)NCCC(=O)NCCSC(=O)[C@@H](N)Cc1ccc(O)c(O)c1` [Compound 371, (2R)—N-[2-[(2-[[(2S)-2-amino-3-(3,4-dihydroxyphenyl)propanoyl]sulfanyl]ethyl)carbamoyl]ethyl]-2,4-dihydroxy-3,3-dimethylbutanamide], the “% decrease in sTNFα” value in test [2] (10 uM) is at least 10%. Moreover, the inhibition at 1 µM in test [2] (setting [9]) was at least 10%. For the same compound, the inhibition at 10 µM in test [2] (setting [10]) and in test [2] (setting [8]) was at least 10% in each case.

On to `CCCCCCC(=O)SCCNC(=O)CCNC(=O)[C@H](O)C(C)(C)CO` [Compound 372, (2R)—N-(2-[[2-(heptanoylsulfanyl)ethyl]carbamoyl]ethyl)-2,4-dihydroxy-3,3-dimethylbutanamide], for which the inhibition at 1 µM in test [2] (setting [9]) was at least 10%. The inhibition at 10 µM is at least 20% in test [2] (setting [10]), at least 10% in test [2] (setting [4]) and at least 10% in test [3] (setting [11]). For the same compound, the activation at 10 µM in test [2] (setting [5]) was at least 10%.

For the compound `CC(O)CC(O)CC(=O)SCCNC(=O)CCNC(=O)[C@H](O)C(C)(C)CO` (some centres unmarked) [Compound 400], the activation at 10 µM in test [1] is at least 10%.

Consider `CC(O)CC(O)CC(O)CC(=O)SCCNC(=O)CCNC(=O)[C@H](O)C(C)(C)CO` (some centres unmarked) [Compound 401], for which the activation at 10 µM in test [1] is at least 10%.

Take `COC(=O)CC(C(C)=O)C(=O)SCCNC(=O)CCNC(=O)[C@H](O)C(C)(C)CO` (some centres unmarked) [Compound 410]: the activation at 10 µM in test [1] is at least 10%.

`CC(=O)SCCNC(=O)CCNC(=O)[C@H](O)C(C)(C)COC(=O)[C@@H](N)Cc1ccc(O)c(O)c1` [Compound 498, (3R)-3-[(2-[[2-(acetylsulfanyl)ethyl]carbamoyl]ethyl)carbamoyl]-3-hydroxy-2,2-dimethylpropyl (2S)-2-amino-3-(3,4-dihydroxyphenyl)propanoate]: the “% decrease in sTNFα” value in test [2] (1 uM) is listed as at least 10%. The inhibition at 1 µM is at least 20% in test [2] (setting [12]) and at least 10% in test [2] (setting [7]). In test [2] (setting [6]), the inhibition at 10 µM is at least 10%. Also, in test [3] (1 uM), the “% increase in MMP-1” value is at least 10%. In addition, the “% decrease in tPA” value in test [3] (10 uM) is at least 10%.

For `CC(=O)SCCNC(=O)CCNC(=O)[C@H](O)C(C)(C)COC(=O)CCC(=O)O` [Compound 1242, (R)-12-hydroxy-13,13-dimethyl-2,7,11,16-tetraoxo-15-oxa-3-thia-6,10-diazanonadecan-19-oic acid], the activation at 10 µM in test [1] is at least 10%.

For `CC[C@@H](O)CC(=O)SCCNC(=O)CCNC(=O)[C@H](O)C(C)(C)CO` [Compound 1245, (2R)-2,4-dihydroxy-N-{2-[(2-{[(3R)-3-hydroxypentanoyl]sulfanyl}ethyl)carbamoyl]ethyl}-3,3-dimethylbutanamide], in test [1], the activation at 10 µM was at least 10%.

Turning to `COC(=O)CCC(=O)SCCNC(=O)CCNC(=O)[C@H](OC(=O)CN)C(C)(C)CO` [Compound 1294, methyl 4-[(2-[3-[(2R)-2-[(2-aminoacetyl)oxy]-4-hydroxy-3,3-dimethylbutanamido]propanamido]ethyl)sulfanyl]-4-oxobutanoate], the inhibition at 1 µM in test [2] (setting [12]) is at least 10%; in test [3] (Homo sapiens, Epithelial cell, 24 h, 1 uM, read-out: % decrease in MMP-1), at least 10%. For the same compound, the activation at 1 µM in test [2] (Homo sapiens, HUVEC, 24 h, 1 uM, read-out: % increase in sTNFα) was at least 10%. The inhibition at 10 µM in test [2] (setting [4]) and in test [2] (setting [8]) was at least 10% in each case.

`COC(=O)CCC(=O)SCCNC(=O)CCNC(=O)[C@H](OC(=O)CNC(C)=O)C(C)(C)CO` [Compound 1298, methyl 4-[(2-[3-[(2R)-2-[(2-acetamidoacetyl)oxy]-4-hydroxy-3,3-dimethylbutanamido]propanamido]ethyl)sulfanyl]-4-oxobutanoate]: the “% decrease in M-CSF” value in test [2] (1 uM) was at least 20%. For the same compound, the “% decrease in sTNFα” value in test [2] (1 uM) is on record as at least 10%. Moreover, in test [2] (10 uM), the “% decrease in Thrombomodulin” value is listed as at least 10%. Further, the inhibition at 1 µM in test [2] (setting [12]) was at least 10%; in test [2] (setting [7]), at least 20%. Besides, the inhibition at 10 µM in test [2] (setting [6]), in test [2] (setting [4]) and in test [3] (setting [11]) was at least 10% each time. Besides, the activation at 10 µM in test [2] (setting [5]) was at least 10%.
